This note sets out measurements from patent publication US20220168268A1, “SMALL-MOLECULE INHIBITOR OF PD-1/PD-L1, PHARMACEUTICAL COMPOSITION THEREOF WITH PD-L1 ANTIBODY, AND APPLICATION OF SAME” (Guangzhou Maxinovel Pharmaceuticals Co., Ltd., priority 2019, published 2022).

pIC50: −log10 of the molar value.

In the assay the target is T1, PD-1/PD-L1 (Homo sapiens, UniProt Q9NZQ7).
T1 construct: unspecified kit tag (tag1 or tag2, recognised by the detection antibodies); purchased CisBio 64CUS000C-1
T1 sequence (Q9NZQ7 19-238 limits assumed): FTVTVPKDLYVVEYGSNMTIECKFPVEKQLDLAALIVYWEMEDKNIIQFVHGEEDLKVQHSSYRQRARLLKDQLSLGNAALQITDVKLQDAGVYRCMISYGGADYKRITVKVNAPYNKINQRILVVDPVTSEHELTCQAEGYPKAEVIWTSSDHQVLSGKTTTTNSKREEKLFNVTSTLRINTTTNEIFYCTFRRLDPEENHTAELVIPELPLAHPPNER
Nature of the assay: Homogeneous Time-Resolved Fluorescence (HTRF) PD-1/PD-L1 binding assay. The conditions noted are these: CisBio kit. On the procedure: Homogenouse Time-Resolved Fluorescence (HTRF) binding assay was used to determine the binding activity of the compound of the present disclosure to PD-1/PD-L1.
The purchased kit (CisBio, #64CUS000C-1) contained the reagents required for experiments such as PD-1, PD-L1, anti-tagl-Eu, Anti-tag2-XL665, Dilute Buffer and Detection Buffer.
1. The compound was formulated to 10 concentrations with a three-fold concentration gradient with 100% DMSO.
2. The solution of the compound in DMSO was added to Dilute Buffer, and mixed evenly and then transferred to a 96-well plate.
3. PD-L1 was diluted with Dilute Buffer and added to the 96-well plate above.
4. PD-1 was diluted with Dilute Buffer, then added to the 96-well plate above and incubated at room temperature for 30 minutes.
5. One portion of anti-tag1-Eu and one portion of anti-tag2-XL665 were added to Detection Buffer, mixed evenly and transferred to the 96-well plate above.
6. The mixed solution in the 96-well plate were incubated at room temperature for 1 to 24 hours.
7. HTRF values were read by Envision.
(TR-FRET usually uses a lanthanide donor and a delayed reading to cut background.)
What is called pIC50 is the IC50 on a negative log10 scale, so that one unit is a factor of ten. The low end stands for a high IC50, the high end for a low IC50. As for `Cc1c(/C=C/c2cc(CN[C@@](C)(CO)C(=O)O)ccc2C(F)(F)F)cccc1-c1cccnc1` [Compound 40, (S,E)-3-hydroxy-2-methyl-2-(3-(2-methyl-3-(pyridin-3-yl)styryl)-4-(trifluoromethyl)benzylamino)propanoic Acid], the negative logarithm of the IC50 (pIC50) is 6.24.

`Cc1c(/C=C/c2cc(CNC(C)(CO)C(=O)O)ccc2C(F)(F)F)cccc1-c1cccc(F)c1F` (stereo not drawn) [Compound 23, (E)-2-(3-(2-(2′,3′-difluoro-2-methylbiphenyl-3-yl)vinyl)-4-(trifluoromethyl)benzylamino)-3-hydroxy-2-methylpropanoic Acid]: the negative-log IC50 (pIC50) was 7.59.

Consider `Cc1c(/C=C/c2cc(CNC(CO)C(=O)O)ccc2C(F)(F)F)cccc1-c1ccc2c(c1)OCCO2` (stereo not drawn) [Compound 1, (E)-2-(3-(3-(2,3-dihydrobenzo[b][1,4]dioxin-6-yl)-2-methylstyryl)-4-(trifluoromethyl)benzylamino)-3-hydroxypropanoic Acid], for which the negative-log IC50 (pIC50) was 7.85.

With `Cc1c(/C=C/c2cc(CNC(CO)(CO)C(=O)O)ccc2C(F)(F)F)cccc1-c1ccccc1` [Compound 19, (E)-2-(3-(2-(2-methylbiphenyl-3-yl)vinyl)-4-(trifluoromethyl)benzylamino)-3-hydroxy-2-hydroxymethylpropanoic Acid], the pIC50 was 7.21.

`Cc1c(/C=C/c2cc(CNC(C)(CO)C(=O)O)ccc2C(F)(F)F)cccc1-c1cccc(F)c1` (stereo not drawn) [Compound 3, (E)-2-(3-(2-(3′-fluoro-2-methylbiphenyl-3-yl)vinyl)-4-(trifluoromethyl)benzylamino)-3-hydroxy-2-methylpropanoic Acid] had a negative-log IC50 (pIC50) of 7.34.

As for `Cc1c(/C=C/c2cc(CN[C@@](C)(CO)C(=O)O)ccc2C(F)(F)F)cccc1-c1ccc2ncoc2c1` [Compound 35, (S,E)-2-(3-(3-(benzo[d]oxazol-6-yl)-2-methylstyryl)-4-(trifluoromethyl)benzylamino)-3-hydroxy-2-methylpropanoic Acid], the negative-log IC50 (pIC50) was 5.96.

With `C[C@](CO)(NCc1ccc(C(F)(F)F)c(/C=C/c2cccc(-c3ccccc3)c2F)c1)C(=O)O` [Compound 34, (R,E)-2-(3-(2-(2-fluorobiphenyl-3-yl)vinyl)-4-(trifluoromethyl)benzylamino)-3-hydroxy-2-methylpropanoic Acid], the negative-log IC50 (pIC50) was 6.74.

`Cc1ccc(CNC(C)(CO)C(=O)O)cc1/C=C/c1cccc(-c2ccccc2)c1C` (stereo not drawn) [Compound 8, (E)-2-(3-(2-(2-methylbiphenyl-3-yl)vinyl)-4-methylbenzylamino)-3-hydroxy-2-methylpropanoic Acid] gave a pIC50 of 7.38.

`Cc1ccc(CN[C@@H](CO)C(=O)O)cc1/C=C/c1cccc(-c2ccc3c(c2F)OCCO3)c1C` [Compound 14, (S,E)-2-(3-(3-(5-fluoro-2,3-dihydrobenzo[b][1,4]dioxin-6-yl)-2-methylstyryl)-4-methylbenzylamino)-3-hydroxypropanoic Acid] had a pIC50 of 7.72.

Molecule `Cc1c(CCc2cc(CNC(CO)C(=O)O)ccc2C(F)(F)F)cccc1-c1ccccc1` (stereo not drawn) [Compound 18, 2-(3-(2-(2-Methylbiphenyl-3-yl)ethyl)-4-(trifluoromethyl)benzylamino)-3-hydroxypropanoic Acid] had a pIC50 of 7.34.

The molecule `Cc1c(/C=C/c2cc(CNC(C)(CO)C(=O)O)ccc2C(F)(F)F)cccc1-c1ccc2c(c1F)OCCO2` (stereo not drawn) [Compound 20, (E)-2-(3-(3-(5-fluoro-2,3-dihydrobenzo[b][1,4]dioxin-6-yl)-2-methylstyryl)-4-(trifluoromethyl)benzylamino)-3-hydroxy-2-methylpropanoic Acid] showed a negative logarithm of the IC50 (pIC50) of 7.74.

In turn, `Cc1c(/C=C/c2cc(CNC(CO)C(=O)O)ccc2F)cccc1-c1ccc2c(c1)OCCO2` (stereo not drawn) [Compound 12, (E)-2-(3-(3-(2,3-dihydrobenzo[b][1,4]dioxin-6-yl)-2-methylstyryl)-4-fluorobenzylamino)-3-hydroxypropanoic Acid] showed a pIC50 of 7.62.

For `Cc1c(/C=C/c2cc(CNC(C)(CO)C(=O)O)ccc2C(F)(F)F)cccc1-c1ccccc1` (stereo not drawn) [Compound 5, (E)-2-(3-(2-(2-methylbiphenyl-3-yl)vinyl)-4-(trifluoromethyl)benzylamino)-3-hydroxy-2-methylpropanoic Acid], the pIC50 is 7.64.

Take `Cc1ccc(CN[C@@](C)(CO)C(=O)O)cc1/C=C/c1cccc(-c2ccc3c(c2F)OCCO3)c1C` [Compound 30, (S,E)-2-(3-(3-(5-fluoro-2,3-dihydrobenzo[b][1,4]dioxin-6-yl)-2-methylstyryl)-4-methylbenzylamino)-3-hydroxy-2-methylpropanoic Acid]: the pIC50 was 7.57.

`Cc1c(/C=C/c2cc(CNC(C)(CO)C(=O)O)cc3c2OCC3)cccc1-c1ccc2c(c1)OCCO2` (stereo not drawn) [Compound 24, (E)-2-((7-(3-(2,3-dihydrobenzo[b][1,4]dioxin-6-yl)-2-methylstyryl)-2,3-dihydrobenzofuran-5-yl)methylamino)-3-hydroxy-2-methylpropanoic Acid] had a pIC50 of 6.37.

In the case of `C[C@@](CO)(NCc1ccc(C(F)(F)F)c(/C=C/c2cccc(-c3ccccc3)c2F)c1)C(=O)O` [Compound 33, (S,E)-2-(3-(2-(2-fluorobiphenyl-3-yl)vinyl)-4-(trifluoromethyl)benzylamino)-3-hydroxy-2-methylpropanoic Acid], the pIC50 is 6.64.

For `Cc1c(/C=C/c2cc(C(C)NCC(=O)O)ccc2C(F)(F)F)cccc1-c1ccccc1` (stereo not drawn) [Compound 32, (E)-2-(1-(3-(2-(2-methylbiphenyl-3-yl)vinyl)-4-(trifluoromethyl)phenyl)ethylamino)acetic Acid], the negative-log IC50 (pIC50) was 7.62.

As for `Cc1c(/C=C/c2cc(CNC(C)(CO)C(=O)O)ccc2C(F)(F)F)cccc1-c1ccc(F)cc1` (stereo not drawn) [Compound 6, (E)-2-(3-(2-(4′-fluoro-2-methylbiphenyl-3-yl)vinyl)-4-(trifluoromethyl)benzylamino)-3-hydroxy-2-methylpropanoic Acid], the pIC50 is 6.49.

In the case of `Cc1c(/C=C/c2cc(CN[C@@](C)(CO)C(=O)O)ccc2C(F)(F)F)cccc1-c1ccc2nccn2c1` [Compound 36], the pIC50 is less than 5.00.

`Cc1c(/C=C/c2cc(CN[C@@](C)(CO)C(=O)O)ccc2C(F)(F)F)cccc1-c1ccc2cn(C)nc2c1` [Compound 42, (S,E)-3-hydroxy-2-methyl-2-(3-(2-methyl-3-(2-methyl-2H-indazol-6-yl)-styryl)-4-(trifluoromethyl)benzylamino)propanoic Acid]: the negative logarithm of the IC50 (pIC50) was 6.06.

With `Cc1c(CCc2cc(CNC(C)(CO)C(=O)O)ccc2C(F)(F)F)cccc1-c1ccccc1` (stereo not drawn) [Compound 21, 2-(3-(2-(2-Methylbiphenyl-3-yl)ethyl)-4-(trifluoromethyl)benzylamino)-3-hydroxy-2-methylpropanoic Acid], the pIC50 is 7.07.

Take `Cc1nc2ccc(-c3cccc(/C=C/c4cc(CN[C@@](C)(CO)C(=O)O)ccc4C(F)(F)F)c3C)cc2o1` [Compound 43, (S,E)-3-hydroxy-2-methyl-2-(3-(2-methyl-3-(2-methylbenzo[d]oxazol-6-yl)-styryl)-4-(trifluoromethyl)benzylamino)-3-hydroxy-2-methylpropanoic Acid]: the pIC50 is 6.27.

`Cc1c(/C=C/c2cc(CNC(C)(CO)C(=O)O)ccc2F)cccc1-c1ccc2c(c1)OCCO2` (stereo not drawn) [Compound 25, (E)-2-(3-(3-(2,3-dihydrobenzo[b][1,4]dioxin-6-yl)-2-methylstyryl)-4-fluorobenzylamino)-3-hydroxy-2-methylpropanoic Acid] showed a negative logarithm of the IC50 (pIC50) of 7.18.

As for `Cc1ccc(CN[C@@](C)(CO)C(=O)O)cc1/C=C/c1cccc(-c2ccccc2)c1C` [Compound 31, (S,E)-2-(3-(2-(2-methylbiphenyl-3-yl)vinyl)-4-methylbenzylamino)-3-hydroxy-2-methylpropanoic Acid], the pIC50 was 7.39.

The molecule `Cc1c(/C=C/c2cc(CN[C@@](C)(CO)C(=O)O)ccc2C(F)(F)F)cccc1-c1cnccn1` [Compound 41, (S,E)-3-hydroxy-2-methyl-2-(3-(2-methyl-3-(pyrazin-2-yl)styryl)-4-(trifluoromethyl)benzylamino)propanoic Acid] had a pIC50 of 6.27.

The molecule `Cc1c(/C=C/c2cc(CN[C@@H](CO)C(=O)O)ccc2C(F)(F)F)cccc1-c1ccc2c(c1F)OCCO2` [Compound 16] had a pIC50 of 7.89.

In the case of `Cc1ccc(CN[C@@](C)(CO)C(=O)O)cc1/C=C/c1cccc(-c2ccccc2)c1C` [Compound 28, (S,E)-2-(3-(2-(2-methylbiphenyl-3-yl)vinyl)-4-methylbenzylamino)-3-hydroxy-2-methylpropanoic Acid], the pIC50 is 7.54.

Consider `Cc1c(/C=C/c2cc(CN[C@@](C)(CO)C(=O)O)ccc2C(F)(F)F)cccc1-c1cn2ccnc2cn1` [Compound 37], for which the pIC50 was 5.89.

In turn, `Cc1c(/C=C/c2cc(CNC(CO)C(=O)O)ccc2C(F)(F)F)cccc1-c1cccc(F)c1F` (stereo not drawn) [Compound 15, (E)-2-(3-(2-(2′,3′-difluoro-2-methylbiphenyl-3-yl)vinyl)-4-(trifluoromethyl)benzylamino)-3-hydroxypropanoic Acid] showed a negative-log IC50 (pIC50) of 7.85.

The molecule `Cc1c(/C=C/c2cc(CN[C@@](C)(CO)C(=O)O)ccc2C(F)(F)F)cccc1-c1ccccn1` [Compound 39, (S,E)-3-hydroxy-2-methyl-2-(3-(2-methyl-3-(pyridin-2-yl)styryl)-4-(trifluoromethyl)benzylamino)propanoic Acid] gave a negative-log IC50 (pIC50) of 5.66.
